# pIC50: −log10 of the molar value.
# How the values were obtained:
# [1] = system: H3K27 methylation in G401 cell; assay: ELISA (H3K27 methylation) assay; type: cell-based; conditions: Homo sapiens, G-401; ELISA Qualified assay (H3K27 methylation); read-out: (c) IC50 (μM), ELISA Qualified
# Excerpt: ELISA (H3K27 Methylation) Assay
# [2] = system: B cell lymphoma cell KARPAS422; assay: Analysis of cell proliferation; type: cell-based; conditions: Homo sapiens, KARPAS-422, 336 h; B cell lymphoma cell KARPAS422 after 14 days of treatment; read-out: antiproliferative activities (IC50 values)
# Procedure: Analysis of Cell Proliferation
# B cell lymphoma cell KARPAS422 was cultured using standard cell culture conditions in RPMI-1640 (Invitrogen, cat #11875) supplemented with 15% FBS (Invitrogen, cat #10099-141) in humidified incubator at 37° C., 5% CO2. To assess the effect of PRC2 inhibition on cell proliferation, exponentially growing cells were seeded at a density of 1×10^5 cells/mL in 12-well plate (Corning, cat #CLS3513). After cell seeding, a compound of the present disclosure was added to the cell media (in concentrations ranging from 0 to 100 μM, 3× dilution series). Viable cell numbers were determined every 3-4 days for up to 14 days using Vi-CELL (Beckman Coulter). On days of cell counting, fresh growth media and compound were replenished and cells split back to a density of 1×10^5 cells/mL. Total cell number is expressed as split-adjusted viable cells per mL. The dose response curves and IC50 values were generated using Prism.
SMILES,IC50 [1],pIC50 [2]
"Cc1cc(-c2cnc(NCc3c(F)ccc4c3CCO4)n3cnnc23)n(C)n1 [Example 1, 8-(1,3-dimethyl-1H-pyrazol-5-yl)-N-((5-fluoro-2,3-dihydrobenzofuran-4-yl)methyl)-[1,2,4]triazolo[4,3-c]pyrimidin-5-amine]",0.0009 µM,9.40
"Cc1nn(C(C)C)cc1-c1cnc(NCc2c(F)ccc3c2CCO3)n2cnnc12 [Example 4, N-((5-Fluoro-2,3-dihydrobenzofuran-4-yl)methyl)-8-(1-isopropyl-3-methyl-1H-pyrazol-4-yl)-[1,2,4]triazolo[4,3-c]pyrimidin-5-amine]",0.0021 µM,9.52
"COc1cc(C)c(-c2cnc(NCc3c(F)ccc4c3CCO4)n3cnnc23)cn1 [Example 5, N-((5-fluoro-2,3-dihydrobenzofuran-4-yl)methyl)-8-(6-methoxy-4-methylpyridin-3-yl)-[1,2,4]triazolo[4,3-c]pyrimidin-5-amine]",0.0029 µM,9.10
"Cc1nc(C2CC2)ncc1-c1cnc(NCc2c(F)ccc3c2CCO3)n2cnnc12 [Example 8, 8-(2-cyclopropyl-4-methylpyrimidin-5-yl)-N-((5-fluoro-2,3-dihydrobenzofuran-4-yl)methyl)-[1,2,4]triazolo[4,3-c]pyrimidin-5-amine]",0.0029 µM,9.22
"Cc1nc(OC(C)C)ncc1-c1cnc(NCc2c(F)ccc3c2CCO3)n2cnnc12 [Example 9, N-((5-fluoro-2,3-dihydrobenzofuran-4-yl)methyl)-8-(2-isopropoxy-4-methylpyrimidin-5-yl)-[1,2,4]triazolo[4,3-c]pyrimidin-5-amine]",0.0035 µM,9.22
"[O-][n+]1cccc(-c2cnc(NCc3c(F)ccc4c3CCO4)n3cnnc23)c1 [Example 10, 3-(5-(((5-fluoro-2,3-dihydrobenzofuran-4-yl)methyl)amino)-[1,2,4]triazolo[4,3-c]pyrimidin-8-yl)pyridine 1-oxide]",0.001 µM,7.76
"Cc1ncccc1-c1cnc(NCc2c(F)ccc3occc23)n2cnnc12 [Example 207, N-((5-fluorobenzofuran-4-yl)methyl)-8-(2-methylpyridin-3-yl)-[1,2,4]triazolo[4,3-c]pyrimidin-5-amine]",0.0036 µM,9.00

# Next, values leading:
IC50 [1],pIC50 [2],SMILES
,8.52,"Cc1ncccc1-c1cnc(NCc2c(F)ccc3c2CCO3)n2cnnc12 [Example 2, N-((5-fluoro-2,3-dihydrobenzofuran-4-yl)methyl)-8-(2-methylpyridin-3-yl)-[1,2,4]triazolo[4,3-c]pyrimidin-5-amine]"
0.0034 µM,9.15,"Cc1ncc(-c2cnc(NCc3c(F)ccc4c3CCO4)n3cnnc23)c(C)n1 [Example 3, 8-(2,4-Dimethylpyrimidin-5-yl)-N-((5-fluoro-2,3-dihydrobenzofuran-4-yl)methyl)-[1,2,4]triazolo[4,3-c]pyrimidin-5-amine]"
0.0038 µM,9.70,"Cc1nc(C2CC2)ccc1-c1cnc(NCc2c(F)ccc3c2CCO3)n2cnnc12 [Example 6, 8-(6-Cyclopropyl-2-methylpyridin-3-yl)-N-((5-fluoro-2,3-dihydrobenzofuran-4-yl)methyl)-[1,2,4]triazolo[4,3-c]pyrimidin-5-amine]"
0.0052 µM,8.52,"OCc1ncccc1-c1cnc(NCc2c(F)ccc3c2CCO3)n2cnnc12 [Example 7, (3-(5-(((5-fluoro-2,3-dihydrobenzofuran-4-yl)methyl)amino)-[1,2,4]triazolo[4,3-c]pyrimidin-8-yl)pyridin-2-yl)methanol]"

# Source: US11207325B2, “Triazolopyrimidine compounds and uses thereof” (Novartis AG, priority 2014, dated 2021)
